Laboratory results published in publication PMC6547681 (Nature Communications, 2019).
“And” between values parts separate entries of the source, which are not always exact repeats. Equal entries are not always repeated.

How the values were obtained:
[1] = test system: KMS-12-PE cells expressing BCL-2 WT; assay: CellTiter-Glo cell viability, KMS-12-PE cells overexpressing BCL-2 WT; conditions: read-out: S55746 LC50, KMS-12-PE overexpressing BCL-2 WT, 24 h, mean ± SD, n = 3
Description: (§1) KMS-12-PE (sourced from DSMZ in 2013; Cat#ACC606) were cultured with HTRPMI with 10% fetal bovine serum. Early passages (P5-P7) after purchase were cryopreserved and thawed for the experiments. Cells beyond passage 15 were not used. Monthly tests for mycoplasma were consistently negative (MycoAlert mycoplasma detection kit; Lonza, GA, USA).
(§2) Cell viability 24 h after treatment was then determined using the CellTiter-Glo assay (Promega, Cat#G9241). […] Experiments were performed on three separate occasions; the data is shown as the means ± SD of those three independent experiments.

[2] = test system: KMS-12-PE cells expressing BCL-2 G101V; assay: CellTiter-Glo cell viability, KMS-12-PE cells overexpressing BCL-2 G101V; conditions: read-out: S55746 LC50, KMS-12-PE overexpressing BCL-2 G101V, 24 h, mean ± SD, n = 3
Description: as §1, §2

[3] = test system: BCL-2 WT; assay: Steady-state competition SPR against immobilised BIMBH3 peptide, BCL-2 WT; format: binding, human
Description: SPR experiments were performed as previously described. […] The lowest concentrations used in direct binding experiments were 1 nM for BIAcore 4000 and 0.1 nM for BIAcore S200 instruments, concentrations below these were below the sensitivity thresholds for the instruments. […] Direct binding experiments were fitted to a 1:1 binding site kinetic model, fitting on and off rates, in BIAevaluation software. For competition experiments steady-state responses were determined in BIAevaluation software according to the software defaults in affinity evaluation mode averaging responses for 5 sec. […] All affinity measurements were performed in at least two independent experiments using independent protein preparations.

Structure (SMILES): O=C(c1cc(-c2cc3c(cc2C(=O)N2Cc4ccccc4C[C@H]2CN2CCOCC2)OCO3)n2c1CCCC2)N(c1ccccc1)c1ccc(O)cc1 [S55746]
- CC50 [1]: 320 ± 150 nM
- CC50 [2]: 2700 ± 430 nM
- S55746 binding weaker than venetoclax ([3]; BCL-2 WT): > 10 fold and 10 fold
- Raw data values in Figure 3f (SPR response) ([3]; S55746 concentration 20, BCL-2 concentration 1 nM, independent experiment 2): 2.733
- Raw data values in Figure 3f (SPR response) ([3]; S55746 concentration 20, BCL-2 concentration 3 nM, independent experiment 2): 5.054
- Raw data values in Figure 3f (SPR response) ([3]; S55746 concentration 20, BCL-2 concentration 4 nM, independent experiment 2): 7.385
- Raw data values in Figure 3f (SPR response) ([3]; S55746 concentration 20, BCL-2 concentration 6 nM, independent experiment 2): 10.4479
- Raw data values in Figure 3f (SPR response) ([3]; S55746 concentration 20, BCL-2 concentration 8 nM, independent experiment 2): 13.83
- Raw data values in Figure 3f (SPR response) ([3]; S55746 concentration 20, BCL-2 concentration 9 nM, independent experiment 2): 18.2167
- Raw data values in Figure 3f (SPR response) ([3]; S55746 concentration 20, BCL-2 concentration 10 nM, independent experiment 1): 14.9942
- Raw data values in Figure 3f (SPR response) ([3]; S55746 concentration 20, BCL-2 concentration 10 nM, independent experiment 3): 5.545
- Raw data values in Figure 3f (SPR response) ([3]; S55746 concentration 20, BCL-2 concentration 11 nM, independent experiment 2): 22.9055
- Raw data values in Figure 3f (SPR response) ([3]; S55746 concentration 20, BCL-2 concentration 12 nM, independent experiment 2): 29.6258
- Raw data values in Figure 3f (SPR response) ([3]; S55746 concentration 20, BCL-2 concentration 16 nM, independent experiment 2): 52.2757
- Raw data values in Figure 3f (SPR response) ([3]; S55746 concentration 20, BCL-2 concentration 20 nM, independent experiment 1): 62.0337
- Raw data values in Figure 3f (SPR response) ([3]; S55746 concentration 20, BCL-2 concentration 20 nM, independent experiment 3): 30.5673
- Raw data values in Figure 3f (SPR response) ([3]; S55746 concentration 20, BCL-2 concentration 24 nM, independent experiment 2): 194.711
- Raw data values in Figure 3f (SPR response) ([3]; S55746 concentration 20, BCL-2 concentration 30 nM, independent experiment 1): 78.5463
- Raw data values in Figure 3f (SPR response) ([3]; S55746 concentration 20, BCL-2 concentration 30 nM, independent experiment 3): 46.9544
- Raw data values in Figure 3f (SPR response) ([3]; S55746 concentration 20, BCL-2 concentration 40 nM, independent experiment 1): 84.3215
- Raw data values in Figure 3f (SPR response) ([3]; S55746 concentration 20, BCL-2 concentration 40 nM, independent experiment 2): 278.992
- Raw data values in Figure 3f (SPR response) ([3]; S55746 concentration 20, BCL-2 concentration 40 nM, independent experiment 3): 55.2753
- Raw data values in Figure 3f (SPR response) ([3]; S55746 concentration 20, BCL-2 concentration 50 nM, independent experiment 1): 87.889
- Raw data values in Figure 3f (SPR response) ([3]; S55746 concentration 20, BCL-2 concentration 50 nM, independent experiment 3): 61.4638
- Raw data values in Figure 3f (SPR response) ([3]; S55746 concentration 20, BCL-2 concentration 60 nM, independent experiment 1): 89.8444
- Raw data values in Figure 3f (SPR response) ([3]; S55746 concentration 20, BCL-2 concentration 60 nM, independent experiment 3): 66.5259
- Raw data values in Figure 3f (SPR response) ([3]; S55746 concentration 20, BCL-2 concentration 70 nM, independent experiment 1): 91.3513
- Raw data values in Figure 3f (SPR response) ([3]; S55746 concentration 20, BCL-2 concentration 70 nM, independent experiment 3): 70.0896
- Raw data values in Figure 3f (SPR response) ([3]; S55746 concentration 20, BCL-2 concentration 80 nM, independent experiment 1): 91.9809
- Raw data values in Figure 3f (SPR response) ([3]; S55746 concentration 20, BCL-2 concentration 80 nM, independent experiment 3): 71.977
- Raw data values in Figure 3f (SPR response) ([3]; S55746 concentration 20, BCL-2 concentration 100 nM, independent experiment 1): 93.8895
- Raw data values in Figure 3f (SPR response) ([3]; S55746 concentration 20, BCL-2 concentration 100 nM, independent experiment 3): 77.7314
- Raw data values in Figure 3f (SPR response) ([3]; S55746 concentration 20, BCL-2 concentration 150 nM, independent experiment 1): 96.8618
- Raw data values in Figure 3f (SPR response) ([3]; S55746 concentration 20, BCL-2 concentration 150 nM, independent experiment 3): 85.769
- Raw data values in Figure 3f (SPR response) ([3]; S55746 concentration 20, BCL-2 concentration 200 nM, independent experiment 1): 97.7551
- Raw data values in Figure 3f (SPR response) ([3]; S55746 concentration 20, BCL-2 concentration 200 nM, independent experiment 3): 90.6286
- Raw data values in Figure 3f (SPR response) ([3]; S55746 concentration 40, BCL-2 concentration 1 nM, independent experiment 2): 1.748
- Raw data values in Figure 3f (SPR response) ([3]; S55746 concentration 40, BCL-2 concentration 3 nM, independent experiment 2): 3.274
- Raw data values in Figure 3f (SPR response) ([3]; S55746 concentration 40, BCL-2 concentration 4 nM, independent experiment 2): 4.7441
- Raw data values in Figure 3f (SPR response) ([3]; S55746 concentration 40, BCL-2 concentration 6 nM, independent experiment 2): 5.884
- Raw data values in Figure 3f (SPR response) ([3]; S55746 concentration 40, BCL-2 concentration 8 nM, independent experiment 2): 7.971
- Raw data values in Figure 3f (SPR response) ([3]; S55746 concentration 40, BCL-2 concentration 9 nM, independent experiment 2): 9.582
- Raw data values in Figure 3f (SPR response) ([3]; S55746 concentration 40, BCL-2 concentration 10 nM, independent experiment 1): 5.808
- Raw data values in Figure 3f (SPR response) ([3]; S55746 concentration 40, BCL-2 concentration 10 nM, independent experiment 3): 2.581
- Raw data values in Figure 3f (SPR response) ([3]; S55746 concentration 40, BCL-2 concentration 11 nM, independent experiment 2): 11.5501
- Raw data values in Figure 3f (SPR response) ([3]; S55746 concentration 40, BCL-2 concentration 12 nM, independent experiment 2): 13.3285
- Raw data values in Figure 3f (SPR response) ([3]; S55746 concentration 40, BCL-2 concentration 16 nM, independent experiment 2): 18.1319
- Raw data values in Figure 3f (SPR response) ([3]; S55746 concentration 40, BCL-2 concentration 20 nM, independent experiment 1): 14.077
- Raw data values in Figure 3f (SPR response) ([3]; S55746 concentration 40, BCL-2 concentration 20 nM, independent experiment 3): 5.653
- Raw data values in Figure 3f (SPR response) ([3]; S55746 concentration 40, BCL-2 concentration 24 nM, independent experiment 2): 35.953
- Raw data values in Figure 3f (SPR response) ([3]; S55746 concentration 40, BCL-2 concentration 30 nM, independent experiment 1): 36.4319
- Raw data values in Figure 3f (SPR response) ([3]; S55746 concentration 40, BCL-2 concentration 30 nM, independent experiment 3): 15.4804
